Test results from PubChem BioAssay (NCI).
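How tested: cells in 96-well plates exposed to compound for 48 hours at five concentrations. At the GI50, growth is halved. The concentration for full growth arrest is given as TGI.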

What was measured:
Test in all cases: growth of human tumour cells (NCI), 48 h
TK-10 renal = system: TK-10 renal
A549 NSCLC = system: A549 NSCLC
T-47D breast = system: T-47D breast
RPMI-8226 leukemia = system: RPMI-8226 leukemia
CAKI-1 renal = system: CAKI-1 renal
MDA-MB-435 = system: MDA-MB-435
NCI-H23 lung = system: NCI-H23 lung
SNB-19 CNS = system: SNB-19 CNS
M14 melanoma = system: M14 melanoma
U251 CNS = system: U251 CNS
HCC-2998 colon = system: HCC-2998 colon
DU-145 prostate = system: DU-145 prostate
SN12C renal = system: SN12C renal
UACC-257 melanoma = system: UACC-257 melanoma
CCRF-CEM leukemia = system: CCRF-CEM leukemia

Compound | TGI (TK-10 renal) [µM] | TGI (A549 NSCLC) [µM] | TGI (T-47D breast) [µM] | TGI (RPMI-8226 leukemia) [µM] | TGI (CAKI-1 renal) [µM] | TGI (MDA-MB-435) [µM] | TGI (NCI-H23 lung) [µM] | TGI (SNB-19 CNS) [µM] | TGI (M14 melanoma) [µM] | TGI (U251 CNS) [µM] | TGI (HCC-2998 colon) [µM] | TGI (DU-145 prostate) [µM] | TGI (SN12C renal) [µM] | TGI (UACC-257 melanoma) [µM] | TGI (CCRF-CEM leukemia) [µM] | GI50 (CAKI-1 renal) [µM] | GI50 (SNB-19 CNS) [µM] | GI50 (DU-145 prostate) [µM]
COC(=O)Nc1nc2ccc(Oc3ccc4nc(NC(=O)OC)[nH]c4c3)cc2[nH]1 | > 63.7 | > 100 | > 100 | > 26.7 | > 100 | 0.166 | > 100 | > 100 | > 29.6 | 10.9 | > 22.7 | 6.09 | > 100 | > 100 | – | – | – | –
CCN(CC)CCNc1ccc2ncn3c4c(OC)ccc(OC)c4c(=O)c1c23 | > 100 | 54.4 | > 100 | – | > 100 | – | 75.5 | 58.7 | 34.4 | 35.6 | 31 | 25.7 | – | > 100 | 27.1 | – | – | –
NC(=O)C(c1ccccc1)N1OC2C(=O)N(Cc3ccccc3)C(=O)C2C1c1cccc(Oc2ccc(Cl)cc2)c1 (configuration not stated) | 95.6 | > 100 | > 100 | – | 31.9 | > 100 | > 100 | > 100 | 69.5 | 85.6 | – | > 100 | 30.7 | > 100 | > 100 | – | – | –
Cc1c(/C=N/NC(=S)Nc2cccc(Cl)c2)c(=O)n(-c2ccccc2)n1C | 44.3 | – | > 100 | > 100 | 25.7 | > 100 | 82.3 | 37.1 | 40.1 | 44.6 | > 100 | 66.9 | – | > 100 | > 100 | – | – | –
O=c1[nH]c(=O)n(C2CC(O)C(CO)O2)cc1OCCc1ccccc1 (configuration not stated) | > 100 | > 100 | > 100 | > 100 | > 100 | > 100 | > 100 | > 100 | > 100 | > 100 | – | > 100 | > 100 | > 100 | > 100 | – | – | –
CC(NC(=O)C(OC(=O)C(C)NC(=O)OC(C)(C)C)C(C)C)C(=O)OC(C(=O)O)C(C)C (configuration not stated) | > 100 | > 100 | > 100 | > 100 | > 100 | > 100 | – | > 100 | > 100 | > 100 | > 100 | > 100 | > 100 | > 100 | – | – | – | –
NCCC(=O)N[C@H](Cc1cc(O)c(O)c(SCC(NC(=O)CC[C@H](N)C(=O)O)C(=O)NCC(=O)O)c1)C(=O)O (some centres not stated) | > 50 | > 50 | – | > 50 | > 50 | > 50 | > 50 | > 50 | > 50 | > 50 | > 50 | > 50 | > 50 | > 50 | – | – | – | –
O=c1cc(CO)n(CCc2c[nH]c3ccccc23)cc1O | > 100 | > 100 | 80.5 | > 100 | > 100 | > 100 | > 100 | > 100 | > 100 | > 100 | – | 83.3 | > 100 | > 100 | 69.8 | – | – | –
C[C@@]12c3c4ccc(C=O)c3Oc3ccc(C=O)c(c31)Oc1c(C=O)ccc(c12)O4 | > 100 | > 100 | > 100 | > 100 | – | > 100 | > 100 | > 100 | > 100 | > 100 | > 100 | – | > 100 | > 100 | – | – | – | –
FC(F)(F)c1nc2ccc(SSc3ccc4nc(C(F)(F)F)[nH]c4c3)cc2[nH]1 | > 100 | > 100 | > 100 | 65 | > 100 | > 100 | > 100 | > 100 | > 100 | > 100 | > 100 | > 100 | > 100 | > 100 | – | > 100 | > 100 | > 100
Oc1ccc(Cl)cc1-c1[nH]c(=S)nc(-c2ccccc2)c1Cl | > 100 | > 100 | > 100 | > 100 | > 100 | > 100 | > 100 | > 100 | > 100 | 97.9 | – | > 100 | > 100 | > 100 | > 100 | – | – | –
O=S(=O)(C(=Ic1ccccc1)S(=O)(=O)C(F)(F)C(F)(F)C(F)(F)C(F)(F)F)C(F)(F)C(F)(F)C(F)(F)C(F)(F)F | 29.9 | 34.3 | 32.5 | 86.4 | 25.9 | 36.8 | 39.7 | 28.5 | 28.2 | 29.5 | 40.4 | – | – | 32.8 | 18.1 | – | – | –
O=C(O)c1nc2cc(C(F)(F)F)ccc2nc1Nc1ccc(Cl)c(Cl)c1 | 37.1 | 21.8 | 36.8 | 59 | 80.3 | 18.6 | 31.7 | 53.5 | 26 | 33.6 | – | – | – | 64.5 | – | – | – | –
NC(=O)c1cc(-c2ccc(-n3ccnc3)cc2)n[nH]c1=O | > 100 | > 100 | – | > 100 | > 100 | > 100 | > 100 | > 100 | > 100 | > 100 | > 100 | > 100 | > 100 | > 100 | > 100 | – | – | –
CCC(CC)C(=O)OC[n+]1ccc(-c2c(COC(=O)NC(C)C)c(COC(=O)NC(C)C)c3n2CCC3)cc1 | – | > 100 | – | > 100 | > 100 | – | > 100 | > 100 | > 100 | > 100 | > 100 | – | > 100 | > 100 | > 100 | – | – | –
C=C[C@@H](OCOCC[Si](C)(C)C)[C@@H](CC)OC(CCCOC(=O)C(C)(C)C)OC (some centres not stated) | 78.9 | > 100 | 56.5 | > 100 | > 100 | > 100 | > 100 | 32.3 | > 100 | 57.6 | – | > 100 | > 100 | > 100 | 92.8 | – | – | –
